Experimental data: patent publication US12617756B2 (ABIVAX, priority 2019, dated 2026)

Test system: RSV A2
Assay: Screening for RSV inhibition using Viral ToxGlo assay (cytopathic effect inhibition in HEp-2 cells)
Type: cell-based, Respiratory Syncytial Virus (RSV)
Conditions: human respiratory syncytial virus; RSV A2 in HEp-2 cells, MOI 0.5, 72h p.i., cytopathic effect inhibition relative to virus control, Viral ToxGlo luminescence
Protocol: Protocol for Screening Antiviral Compounds for RSV Inhibition and Cytotoxicity Using Viral ToxGlo Assay
HEp-2 cells were maintained in Eagle's minimum essential medium (EMEM) with Earle's BSS adjusted to contain 2 mM L-glutamine, 10% fetal bovine serum, 100 U/ml penicillin and 100 µg/ml streptomycin. For the purposes of the screening assay they were grown to 90% confluency, trypsinized and recovered. The trypsin was neutralised with cell culture media and cells were centrifuged at 150×g for 5 minutes before discarding the supernatant and resuspending cell pellet in assay media (EMEM with Earle's BSS adjusted to contain 2 mM L-glutamine, 2% fetal bovine serum and 100 U/ml penicillin and 100 µg/ml streptomycin). The cells were seeded into white clear-bottomed cell culture plates at a density of 1.5×10^4 cells/well in 50 μl and 4×10^3 cells/well in 25 μl for 96 well plates and 384 well plates respectively. For the media/background control column assay media only was added. Cell plates were placed in a humid chamber and incubated overnight at 37° C./5% CO2. After overnight incubation cells were checked for confluency and healthy appearance.
Test articles were made up at 10× test concentration in a maximum DMSO concentration of 10% (final assay concentration maximal 1% DMSO) and added to the cell plates in volumes of […] for 96 well plates and 5 μl for 384 well plates. For cell control and virus control wells the test article solvent only was added. Virus or assay media for cytotoxicity test wells and media/cell control wells was added immediately after test articles at an MOI of […] for 96 and 384 well plates respectively. Virus suspension was prepared by thawing RSV A2 frozen stocks and diluting to the required concentration of plaque forming units in assay media on ice.
Cell plates were further incubated inside a humid chamber for 72h p.i at 37° C./5% CO2. After the incubation period cells were observed under the microscope to check for characteristic cytopathic effect in virus control wells and healthy cells in the cell control wells. After plates were adjusted to room temperature 20/40 μl Viral ToxGlo (Promega) was added to each well of the 384/96 well cell plates. Plates were incubated at room temperature, protected from light on a plate rocker for 20 minutes before measuring the luminescence on a spectrophotometer (Biotek Synergy HTX).

Row | Compound | EC50
1 | CC1(NC(=O)c2cccc(Nc3ccc(C(=O)N=C4NCCN4)cc3C3CCCO3)c2Cl)CC1 (stereo not shown) [Compound 137, 4-({2-chloro-3-[(1-methylcyclopropyl)carbamoyl]phenyl}amino)-N-[imidazolidin-2-ylidene]-3-(oxolan-2-yl)benzamide] | 204 nM
2 | CC(C)NC(=O)c1cccc(Nc2ccc(C(=O)N=C3NCCN3)cc2C(C)(C)C)c1 [Compound 19, 3-tert-butyl-N-[(2E)-imidazolidin-2-ylidene]-4-({3-[(propan-2-yl)carbamoyl]phenyl}amino)benzamide] | 22.8 nM
3 | CC1(NC(=O)c2cc(F)cc(Nc3ccc(C(=O)N=C4NCCN4)cc3C3CC3)c2)CC1 [Compound 47, 3-cyclopropyl-4-({3-fluoro-5-[(1-methylcyclopropyl)carbamoyl]phenyl}amino)-N-[(2Z)-imidazolidin-2-ylidene]benzamide] | 113 nM
4 | CC(C)NC(=O)c1cccc(Nc2ccc(C(=O)N=C3NCCN3)cc2C2CCOCC2)c1 [Compound 69, N-[(2Z)-imidazolidin-2-ylidene]-3-(oxan-4-yl)-4-({3-[(propan-2-yl)carbamoyl]phenyl}amino)benzamide] | 1130 nM
5 | CC1(C(=O)Nc2cccc(Nc3ccc(C(=O)N=C4NCCN4)cc3C3CC3)c2)COC1 [Compound 161, N-{3-[(2-cyclopropyl-4-{[imidazolidin-2-ylidene]carbamoyl}phenyl)amino]phenyl}-3-methyloxetane-3-carboxamide] | 690 nM
6 | O=C(N=C1NCCN1)c1cc(F)c(Nc2cccc(C(=O)N3CCOCC3)c2Cl)c(C2CCOC2)c1 (stereo not shown) [Compound 134, 4-{[2-chloro-3-(morpholine-4-carbonyl)phenyl]amino}-3-fluoro-N-[imidazolidin-2-ylidene]-5-(oxolan-3-yl)benzamide] | 39.2 nM
7 | CC(C)CCNC(=O)c1ccccc1Nc1ccc(C(=O)N=C2NCCN2)cc1C1CC1 [Compound 62, 3-cyclopropyl-N-[(2E)-imidazolidin-2-ylidene]-4-({2-[(3-methylbutyl)carbamoyl]phenyl}amino)benzamide] | 641 nM
8 | O=C(N=C1NCCN1)c1cc(F)c(Nc2nccc(C(=O)N3CCOCC3)c2F)c(C2CC2)c1 [Compound 156, 3-cyclopropyl-5-fluoro-4-{[3-fluoro-4-(morpholine-4-carbonyl)pyridin-2-yl]amino}-N-[imidazolidin-2-ylidene]benzamide] | 40.7 nM
9 | CC1(NC(=O)c2nccc(Nc3ccc(C(=O)N=C4NCCN4)cc3C3CC3)c2Cl)CC1 [Compound 150, 3-chloro-4-[(2-cyclopropyl-4-{[imidazolidin-2-ylidene]carbamoyl}phenyl)amino]-N-(1-methylcyclopropyl)pyridine-2-carboxamide] | 263 nM
10 | O=C(N=C1NCCN1)c1ccc(Nc2cccc(C(=O)N3CCOCC3)c2Cl)c(C2CCOC2)c1 (stereo not shown) [Compound 15, 4-{[2-chloro-3-(morpholine-4-carbonyl)phenyl]amino}-N-[(2E)-imidazolidin-2-ylidene]-3-(oxolan-3-yl)benzamide] | 14.9 nM
11 | CC1(NC(=O)c2nccc(Nc3c(F)cc(C(=O)N=C4NCCN4)cc3C3CC3)c2F)CC1 [Compound 99, 4-[(2-cyclopropyl-6-fluoro-4-{[(2Z)-imidazolidin-2-ylidene]carbamoyl}phenyl)amino]-3-fluoro-N-(1-methylcyclopropyl)pyridine-2-carboxamide] | 35.3 nM
12 | O=C(N=C1NCCN1)c1ccc(Nc2cccc(C(=O)N3CCOCC3)c2C(F)(F)F)c(C2CC2)c1 [Compound 115, 3-cyclopropyl-N-[imidazolidin-2-ylidene]-4-{[3-(morpholine-4-carbonyl)-2-(trifluoromethyl)phenyl]amino}benzamide] | 29.6 nM
13 | O=C(N=C1NCCN1)c1ccc(Nc2cc(F)cc(C(=O)N3CCOCC3)c2Cl)c(C2CC2)c1 [Compound 118, 4-{[2-chloro-5-fluoro-3-(morpholine-4-carbonyl)phenyl]amino}-3-cyclopropyl-N-[imidazolidin-2-ylidene]benzamide] | 27 nM
14 | CC(C)NC(=O)c1cccc(Nc2ccc(C(=O)/N=C3\NCC(=O)N3C)cc2C2CC2)c1 [Compound 61, 3-cyclopropyl-N-[(2E)-1-methyl-5-oxoimidazolidin-2-ylidene]-4-({3-[(propan-2-yl)carbamoyl]phenyl}amino)benzamide] | 516 nM
15 | CC1(NC(=O)c2cc(F)cc(Nc3ccc(C(=O)N=C4NCCN4)cc3C3CC3)c2F)CC1 [Compound 139, 3-[(2-cyclopropyl-4-{[imidazolidin-2-ylidene]carbamoyl}phenyl)amino]-2,5-difluoro-N-(1-methylcyclopropyl)benzamide] | 152 nM
16 | CC(C)NC(=O)c1cc(F)cc(Nc2ccc(C(=O)N=C3NCCN3)cc2C2CC2)c1C1CC1 [Compound 148, 2-cyclopropyl-3-[(2-cyclopropyl-4-{[imidazolidin-2-ylidene]carbamoyl}phenyl)amino]-5-fluoro-N-(propan-2-yl)benzamide] | 347 nM
17 | CC(C)CCNC(=O)c1ccnc(Nc2ccc(C(=O)N=C3NCCN3)cc2C(C)(C)C)c1 [Compound 55, 2-[(2-tert-butyl-4-{[(2E)-imidazolidin-2-ylidene]carbamoyl}phenyl)amino]-N-(3-methylbutyl)pyridine-4-carboxamide] | 168 nM
18 | CC(C)CC1(NC(=O)c2cccc(Nc3ccc(C(=O)N=C4NCCN4)cc3C3CC3)c2)CC1 [Compound 107, 3-cyclopropyl-N-[(2Z)-imidazolidin-2-ylidene]-4-[(3-{[1-(2-methylpropyl)cyclopropyl]carbamoyl}phenyl)amino]benzamide] | 14 nM
19 | O=C(N=C1NCCN1)c1cc(F)c(Nc2nccc(C(=O)N3C[C@@H]4C[C@H]3CO4)c2Cl)c(C2CC2)c1 [Compound 155, 4-({3-chloro-4-[(1S,4S)-2-oxa-5-azabicyclo[2.2.1]heptane-5-carbonyl]pyridin-2-yl}amino)-3-cyclopropyl-5-fluoro-N-[imidazolidin-2-ylidene]benzamide] | 51.8 nM
20 | CC(C)NC(=O)c1ccccc1Nc1ccc(C(=O)N=C2NCCN2)cc1C1CC1 [Compound 70, 3-cyclopropyl-N-[(2E)-imidazolidin-2-ylidene]-4-({2-[(propan-2-yl)carbamoyl]phenyl}amino)benzamide] | 1150 nM
21 | CC(C)NC(=O)c1cc(C#N)cc(Nc2ccc(C(=O)N=C3NCCN3)cc2C2CC2)c1 [Compound 112, 4-({3-cyano-5-[(propan-2-yl)carbamoyl]phenyl}amino)-3-cyclopropyl-N-[imidazolidin-2-ylidene]benzamide] | 710 nM
22 | O=C(N=C1NCCN1)c1ccc(Nc2cc(F)cc(C(=O)N3CCOCC3)c2)c(C2CC2)c1 [Compound 73, 3-cyclopropyl-4-{[3-fluoro-5-(morpholine-4-carbonyl)phenyl]amino}-N-[(2Z)-imidazolidin-2-ylidene]benzamide] | 1290 nM
23 | CC(C)(O)c1cc(C(=O)N=C2NCCN2)ccc1Nc1cccc(C(=O)N2CCOCC2)c1C(F)(F)F [Compound 30, 3-(2-hydroxypropan-2-yl)-N-[(2E)-imidazolidin-2-ylidene]-4-{[3-(morpholine-4-carbonyl)-2-(trifluoromethyl)phenyl]amino}benzamide] | 42.7 nM
24 | CC(C)C1COCCN1C(=O)c1cccc(Nc2ccc(C(=O)N=C3NCCN3)cc2C2CC2)c1Cl (stereo not shown) [Compound 104, 4-({2-chloro-3-[3-(propan-2-yl)morpholine-4-carbonyl]phenyl}amino)-3-cyclopropyl-N-[(2Z)-imidazolidin-2-ylidene]benzamide] | 12.4 nM
25 | O=C(N=C1NCCN1)c1ccc(Nc2cccc(C(=O)N3CCOCC3)c2Cl)c(C(F)(F)F)c1 [Compound 16, 4-{[2-chloro-3-(morpholine-4-carbonyl)phenyl]amino}-N-[(2E)-imidazolidin-2-ylidene]-3-(trifluoromethyl)benzamide] | 15.6 nM
26 | CC1(NC(=O)c2cccc(Nc3c(F)cc(C(=O)N=C4NCCN4)cc3C3CC3)c2F)CC1 [Compound 143, 3-cyclopropyl-5-fluoro-4-({2-fluoro-3-[(1-methylcyclopropyl)carbamoyl]phenyl}amino)-N-[imidazolidin-2-ylidene]benzamide] | 59.7 nM
27 | CC1(NC(=O)c2cccc(Nc3ccc(C(=O)N=C4NCCN4)cc3C3CCC3)c2)CC1 [Compound 18, 3-cyclobutyl-N-[(2Z)-imidazolidin-2-ylidene]-4-({3-[(1-methylcyclopropyl)carbamoyl]phenyl}amino)benzamide] | 21.2 nM
28 | O=C(N=C1NCCN1)c1ccc(Nc2cccc(C(=O)NC3CC3)c2Cl)c(C2CC2)c1 [Compound 25, 4-{[2-chloro-3-(cyclopropylcarbamoyl)phenyl]amino}-3-cyclopropyl-N-[(2Z)-imidazolidin-2-ylidene]benzamide] | 32.2 nM
